Earlier results as cited in patent US20080112910A1, “Cool feeling composition, cool feeling auxiliary composition, and use thereof” (priority 2002, published 2008).

Settings: as compared with menthol

Structure (SMILES): COC(=O)c1ccccc1O [methyl salicylate]
- stimulation of cool feeling: very weak
- stimulation of hot feeling: strong
